# In patent US8367695B2, “Condensed tetrahydroquinoline derivative and use thereof for medical purposes” (Mitsubishi Tanabe Pharma Corporation, priority 2007, dated 2013):
# Target: T1, human recombinant glucocorticoids receptor (GR) (Homo sapiens, UniProt P04150)
# T1 sequence (P04150 1-777): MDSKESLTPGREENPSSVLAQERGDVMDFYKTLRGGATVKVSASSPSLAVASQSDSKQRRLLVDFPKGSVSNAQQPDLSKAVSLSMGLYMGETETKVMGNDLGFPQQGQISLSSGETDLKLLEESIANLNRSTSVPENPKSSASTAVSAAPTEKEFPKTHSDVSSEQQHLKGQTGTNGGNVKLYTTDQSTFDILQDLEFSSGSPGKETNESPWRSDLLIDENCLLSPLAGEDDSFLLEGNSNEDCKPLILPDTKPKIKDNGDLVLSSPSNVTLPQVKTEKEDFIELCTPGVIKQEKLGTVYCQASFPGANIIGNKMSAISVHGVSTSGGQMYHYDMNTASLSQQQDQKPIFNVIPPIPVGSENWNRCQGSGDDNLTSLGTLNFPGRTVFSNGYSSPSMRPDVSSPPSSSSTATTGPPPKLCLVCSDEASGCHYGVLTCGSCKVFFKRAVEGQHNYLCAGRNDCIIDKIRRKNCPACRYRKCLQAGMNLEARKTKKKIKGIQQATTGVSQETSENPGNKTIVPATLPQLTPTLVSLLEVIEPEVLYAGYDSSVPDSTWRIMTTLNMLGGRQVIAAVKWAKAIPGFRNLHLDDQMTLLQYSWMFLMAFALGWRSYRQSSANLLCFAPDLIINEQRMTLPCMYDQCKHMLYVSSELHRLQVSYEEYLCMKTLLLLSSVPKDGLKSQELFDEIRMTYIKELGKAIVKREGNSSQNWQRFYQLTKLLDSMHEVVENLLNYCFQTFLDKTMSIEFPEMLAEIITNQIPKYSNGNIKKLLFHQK
# Experiment: Radioactive ligand binding test, GR cytosol, [3H]-Dex
# Details: [3H]-Dex about 5 nM, GR cytosol, 4° C.; Cheng-Prusoff, Kd about 3.1 nM; read-out: GR (Ki: nM)
# Method: Radioactive Ligand Binding Test Using Cytosols of Human Glucocorticoids Receptor, Progesterone Receptor and Mineralocorticoid Receptor
# Opthalmol. Vis. […] In brief, cytosol preparations of human recombinant glucocorticoids receptor (GR) and human recombinant progesterone receptor-B (PRB) were purchased from Invitrogen (Carlsbad, Calif.), and a cytosol preparation of human recombinant mineralocorticoid receptor (MR) was prepared by our company (Yokohama, JP). MR cDNA was cloned into a baculovirus expression vector and expressed in insect cell Sf9. […] [^3H]-Dexamethasone (Dex, specific activity 91.0 Ci/mmol) was purchased from GE Healthcare (Buckinghamshire, UK), and [^3H]-progesterone (Prog, specific activity 103 Ci/mmol) and [3H]-aldosterone (Ald, specific activity 87.9 Ci/mmol) were each purchased from PerkinElmer (Boston, Mass.). Polypropylene round-bottomed 96 well plate was obtained from ABgene (Epsom, UK). Dimethyl Sulfoxide (DMSO) and hydrochloric acid were obtained from Kanto Chemical (TOKYO, JP). Trizma Base (Tris), Bovine Serum Albumin (BSA) and Sodium tungstate dihydrate were obtained from Sigma Chemicals (St. Louis, Mo.). Dithiothreitol (DTT) and Dextran 70 were obtained from GE Healthcare (Buckinghamshire, UK). Glycerol was obtained from Junsei Chemical (TOKYO, JP). Norit® “SX-II” was obtained from Wako Pure Chemical Industries, Ltd. (Osaka, JP). MeltiLex™, A, Printed Filtermat A and Sample Bag were obtained from PerkinElmer (Boston, Mass.).
# As a buffer for GR binding assay, 25 mM Tris-HCl (4° C., pH 7.4)/1 mM EDTA·2Na/1 mM DTT/0.1% BSA was prepared and used. As buffers for PRB and MR binding assay, 10 mM Tris-HCl (4° C., pH 7.4)/1 mM DTT/0.1% BSA/10% glycerol and 20 mM Tris-HCl (4° C., pH 7.4)/1 mM EDTA·2Na/10% glycerol/20 mM sodium tungstate were respectively prepared and used.
# Compound storage solutions (5-20 mM) were prepared using DMSO. The storage solutions were diluted with DMSO to 0.1 mM (for GR) and 0.3 mM (for PRB and MR), and further diluted 20-fold with distilled water to give solutions. Then, the preparations were diluted to each concentration with 5% DMSO solution. 1% DMSO was present at the time of the binding assay.
# GR, PRB and MR binding reactions were performed in 96 well plate (ABgene). In the case of GR binding assay, [^3H]-Dex (about 5 nM), GR cytosol (concentration of function receptor: about 4 pmol/mL), a test compound and a binding buffer were mixed in a total volume of 50 μL, and the mixture was stood at 4° C. for 30 min or longer. A specific binding was defined to be the difference in the [^3H]-Dex binding between the presence and the absence of 1 μM unlabeled Dex.
# After the reaction, 50 μL of DCC was added to each well and blended. Thereafter, the mixture was stood at 4° C. for 10 min. The plate was applied to high-speed cooling centrifuge under the conditions of 4° C., 2000 rpm, 5 min to perform B/F separation. A given amount of the supernatant was recovered, which was spotted on Filtermat A of 96 well format (PerkinElmer) and rapidly dried at a high temperature.
# Measurement of Inhibition Constant (Ki)
# Ki of the test compound was determined by the following Cheng-Prusoff equation: Ki=IC50/(1+[L*]/Kd) • wherein L* is a concentration of radioactive ligand and Kd is a dissociation constant for radioactive ligand determined by saturation analysis.
row,Structure (SMILES),Ki
1,"Cc1noc(C)c1-c1cc2c(c3c1C(=O)CC3)NC(C)(C)C(=O)C2(C)C [Example 104, 6-(3,5-dimethylisoxazol-4-yl)-2,2,4,4-tetramethyl-2,3,4,7,8,9-hexahydro-1H-cyclopenta[h]quinoline-3,7-dione]",60 nM
2,"C=C1C(C)(C)Nc2c(cc(-c3c(C)ncn3C)c3c2CCC3)C1(C)C [Example 29, 6-(3,5-dimethyl-3H-imidazol-4-yl)-2,2,4,4-tetramethyl-3-methylene-2,3,4,7,8,9-hexahydro-1H-cyclopenta[h]quinoline]",58 nM
3,"C=CCC1(C)C(=O)C(C)(C)Nc2c1cc(-c1c(C)noc1C)c1c2CCC1 (stereo not drawn) [Example 51, 4-allyl-6-(3,5-dimethylisoxazol-4-yl)-2,2,4-trimethyl-2,3,4,7,8,9-hexahydro-1H-cyclopenta[h]quinolin-3-one]",17 nM
